Experiment: shake flask on a mixture of 185; loss from the water phase only; LC-Orbitrap peak areas
Conditions: room

Compound | log partition 1-octanol / HPLC water, unbuffered, traces of methanol / DMSO [log10] | log partition butyl acetate / HPLC water, unbuffered, traces of methanol / DMSO [log10] | log partition chloroform / HPLC water, unbuffered, traces of methanol / DMSO [log10] | log partition cyclohexane / HPLC water, unbuffered, traces of methanol / DMSO [log10] | log partition dichloromethane / HPLC water, unbuffered, traces of methanol / DMSO [log10] | log partition n-hexane / HPLC water, unbuffered, traces of methanol / DMSO [log10] | log partition n-octane / HPLC water, unbuffered, traces of methanol / DMSO [log10] | log partition n-undecane / HPLC water, unbuffered, traces of methanol / DMSO [log10] | log partition oleylalcohol / HPLC water, unbuffered, traces of methanol / DMSO [log10] | log partition toluene / HPLC water, unbuffered, traces of methanol / DMSO [log10]
CCOC(=O)CC(=O)c1ccccc1 | -0.2282 | -0.1902 | 0.1944 | -1.116 | -0.2025 | -1.048 | -1.147 | -0.8216 | -0.4257 | -0.3454
CC(C)Nc1nc(N)nc(Cl)n1 | 1.201 | 1.711 | 1.238 | -0.6663 | 1.437 | -0.7941 | -0.5719 | -1.115 | 1.559 | 0.5402
CCCCC(O)(Cn1cncn1)c1ccc(Cl)cc1Cl (stereo not shown) | 3.35 | 5.299 | 1.307 | 3.351 | 4.823 | 2.027 | 2.104 | 2.029 | 3.139 | 4.525
CN1COCN(Cc2cnc(Cl)s2)C1=N[N+](=O)[O-] | -0.1952 | 0.2434 | 1.267 | -1.812 | 1.869 | -1.862 | -1.749 | -1.056 | -0.5161 | -0.2331
C=C(C)C(=O)OCCOCCOC(=O)C(=C)C | 0.2475 | -0.01795 | 0.3491 | -0.1638 | 0.4156 | -0.1437 | -0.3242 | -0.3846 | 0.1237 | -0.03291
CC(C)c1cccc(O)c1 | -0.1403 | -0.382 | 0.06183 | -0.6197 | -0.09834 | -0.5466 | -0.6932 | -0.7318 | -0.144 | -0.5154
O=C(O)CCN(C1(C(=O)NO)CCCC1)S(=O)(=O)c1ccc(Oc2ccc(F)cc2)cc1 | -0.5893 | 1.182 | 0.09364 | -1.331 | 0.4348 | -1.472 | -1.686 | 0.1413 | 0.5204 | -0.3191
CCCCC(CC)COC(=O)c1ccccc1C(=O)O (stereo not shown) | -0.191 | -0.07834 | 0.168 | -0.8356 | 0.3352 | -1.06 | -1.182 | -1.177 | -0.5168 | -0.2474
O=C(O)c1ccccc1C(c1ccc(O)cc1)c1ccc(O)cc1 | -0.6855 | 0.116 | -0.6877 | -1.286 | -0.3134 | -0.9598 | -1.232 | -1.337 | -0.1989 | -0.7201
CC(=O)c1ccc2ccccc2c1 | 0.3821 | -0.9282 | -0.4983 | -0.222 | -0.6955 | 0.5227 | 0.6442 | 0.226 | -0.06645 | -0.371
